This is an account of results in US20220380310A1, “P2X7R ANTAGONISTS” (priority 2019, published 2022).

Where a name gives a salt, the structure may show the parent alone.

For the assay, the target named is T1, Human P2X2 receptor (P2X2R) (Homo sapiens, UniProt Q9UBL9).
T1 construct: expressed in transfected cells; host or cells: HEK-293
T1 sequence (Q9UBL9 1-471): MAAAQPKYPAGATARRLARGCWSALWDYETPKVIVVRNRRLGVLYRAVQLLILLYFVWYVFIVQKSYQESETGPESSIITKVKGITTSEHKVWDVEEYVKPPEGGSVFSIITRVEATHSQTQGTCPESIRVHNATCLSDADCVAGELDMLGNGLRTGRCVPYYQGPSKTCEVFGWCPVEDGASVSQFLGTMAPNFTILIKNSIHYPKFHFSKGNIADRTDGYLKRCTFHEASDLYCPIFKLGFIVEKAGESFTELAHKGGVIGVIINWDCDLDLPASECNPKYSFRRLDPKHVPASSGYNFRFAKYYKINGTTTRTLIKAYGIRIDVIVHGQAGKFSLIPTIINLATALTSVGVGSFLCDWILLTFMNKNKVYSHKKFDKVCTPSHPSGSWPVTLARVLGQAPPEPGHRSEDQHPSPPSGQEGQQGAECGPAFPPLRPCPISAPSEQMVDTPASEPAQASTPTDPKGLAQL
The assay can be described thus: Yo-Pro-1 uptake assay, P2X2R transfected HEK-293 cells. To be noted: 5 μM ATP stimulus; for remaining activity at 5 µM: HEK293, compound at 5 μM, read-out: Percentage of activity remains in the presence of the compound at 5 μM, P2X2R (Yo-Pro-1 Assay). The class given is cell-based. From the text:
Yo-Pro-1 Iodide (Cat. No Y3603 from Fisher Scientific) is a fluorescent DNA-binding dye with a MW of 629 Da. This method is based upon the Yo-Pro-1 entrance to cells through the dilated or “large pore form” of P2X7R and its binding to intracellular DNA whereby it increases its fluorescence intensity (J. Pharmacol. Exp. Ther. 308, 1053-1061). The dye has an absorption spectrum compatible with excitation at 488 nm by argon laser sources and its emission wavelength is in the range of 515-575 nm. This Yo-Pro-1 uptake was measured in HEK-293 cells transiently transfected with P2X7R (J. Biol. Chem. 290, 7930-7942). In Brief, HEK-293 cells were seeded in growth medium at approximately 20,000 cells/well in a 96-well plate on day 1. Transfection was performed on day 2 using Lipofectamine 2000 with the P2X7R DNA plasmid at the concentration of 1.7 μg/ml. The transfection solution was replaced with the growth medium 4 hours later. Fluorescent assays were conducted on day 4. On day 4, the medium was removed, the cells were washed with phosphate buffered saline (PBS) (Cat. No. MT21040CV from Fisher Scientific). Then, 25 μl of PBS were first loaded to each well followed by 25 μl of various test compounds. The third 25 μl of solution contained a mixture of Yo-Pro-1 and stimulus bzATP (2′(3′)-O-(4-Benzoylbenzoyl)adenosine-5′-triphosphate tri(triethylammonium) salt). The final concentration of Yo-Pro-1 was 2.5 μM and of bzATP 30 μM. Fluorescence increases were measured every 30 minutes in a microplate device with excitation at 475 nm and emission wavelength in the range of 500-550 nm. PPADS (Pyridoxalphosphate-6-azophenyl-2′,4′-disulfonic acid tetrasodium) was used as the positive control. The wells with no test compounds added nor bzATP and only containing PBS and Yo-Pro-1 were served as the negative control (N Contl). The positive control (P Contl) wells were the same as N Contl but contained the stimulus, bzATP in this case.
Data used for analysis were from microplate readings 1 hour after bzATP stimulation. The result of each well was first normalized by its corresponding base microplate reading. The base microplate reading was the first reading right after all components were added. Then, the negative control signal was subtracted from. In the negative control, the test compound and the stimulus were replaced by PBS. An average of six highest values of the plate (AVG) were considered as 100% and the value of each well was divided by AVG and presented as the relative values in percentages.
Human P2X2 receptor (P2X2R) construct (J. Biol. Chem. 290, 7930-7942) was transiently transfected to HEK-293 cells and the Yo-Pro-1 assay was performed as described above. When 5 μM ATP was used as the stimulus, the elevation of receptor mediated activity can be seen in 10 minutes.

Take `O=C(CCc1ccccc1)N1CCN(S(=O)(=O)c2ccc(NC3CCCCC3)cc2)CC1` [#33]: the remaining activity at 5 µM was determined as 60.9%. Same read-out and setting: the value for `O=S(=O)(c1ccccc1)C1CN(S(=O)(=O)c2ccc(N3CCOCC3)cc2)C1` [#11] was 44%. The same measure, in the same setting: the value for `O=C(CCc1ccccc1)NC1CCCN(S(=O)(=O)c2ccc(N3CCC(F)(F)CC3)cc2)C1` (centres unmarked) [#46] was 39.1%. For the compound `O=C(NCCc1ccccc1)C1CCN(S(=O)(=O)c2ccc(N3CCCC3)cc2)CC1` [#21], the remaining activity at 5 µM is 50.8%.

Consider `CN1CCN(c2ccc(S(=O)(=O)N3CCCC(NC(=O)CCc4ccccc4)C3)cc2)CC1` (centres unmarked) [#18], for which the remaining activity at 5 µM was determined as 52.7%.

Take `O=C(CCc1ccccc1)NC1CCCN(S(=O)(=O)c2ccc(N3CCC(Oc4ccccc4)CC3)cc2)C1` (centres unmarked) [#38]: the remaining activity at 5 µM amounted to 57.6%.

`O=C(NCCc1ccccc1)C1CCCN(S(=O)(=O)c2ccc(N3CCOCC3)cc2)C1` (centres unmarked) [#24]: the remaining activity at 5 µM was 70.9%. Still for that read-out and setting: in the case of `CC(C)N(C(C)C)S(=O)(=O)c1ccc(N2CCCC(NC(=O)CCc3ccccc3)C2)cc1` (centres unmarked) [#49] it was 55.9%; in that of `CC(C)COc1ccc(S(=O)(=O)N2CCCC(NC(=O)CCc3ccccc3)C2)cc1` (centres unmarked) [#6], 54.3%.

Take `O=C(CCc1ccccc1)N1CCN(S(=O)(=O)c2ccc(F)cc2)CC1` [#30]: the remaining activity at 5 µM was 74.9%. `O=C(CCc1ccccc1)NC1CCCN(S(=O)(=O)c2ccc(-n3cc(Br)cn3)cc2)C1` (centres unmarked) [#9]: the remaining activity at 5 µM was 76.9%. Still for that read-out and setting: the value for `O=C(CCc1ccccc1)NC1CCCN(S(=O)(=O)c2ccc(N3CCCC3)cc2)C1` (centres unmarked) [#13] was 48.9%; that for `CC(C)S(=O)(=O)c1ccc(N2CCCC(NC(=O)CCc3ccccc3)C2)cc1` (centres unmarked) [#7] was 77.6%.

Regarding `O=C(CCc1ccccc1)NC1CCCN(c2ccc(S(=O)(=O)N3CCCC3)cc2)C1` (centres unmarked) [#55], the remaining activity at 5 µM worked out at 85.4%. Take `O=S(=O)(c1ccccc1)C1CN(S(=O)(=O)c2ccc(N3CCCCC3)cc2)C1` [#10]: the remaining activity at 5 µM was determined as 38.2%. On the same count and under the same terms, in the case of `O=C(CCc1ccccc1)NC1CCCN(c2ccc(S(=O)(=O)NC3CCCCC3)cc2)C1` (centres unmarked) [#51] it was 46.6%; in that of `NS(=O)(=O)c1ccc(N2CCCC(NC(=O)CCc3ccccc3)C2)cc1` (centres unmarked) [#53], 70.9%. Take `CC(C)(C)OC(=O)N1CCN(c2ccc(S(=O)(=O)N3CCN(C(=O)CCc4ccccc4)CC3)cc2)CC1` [#31]: the remaining activity at 5 µM came out at 64%. Same read-out and setting: in the case of `CC1CCN(c2ccc(S(=O)(=O)N3CCCC(NC(=O)CCc4ccccc4)C3)cc2)CC1` (centres unmarked) [#40] it was 69.1%; in that of `CC(C)(C)OC(=O)N1CCN(c2ccc(S(=O)(=O)N3CCC(C(=O)NCCc4ccccc4)CC3)cc2)CC1` [#22], 72%. Still for that read-out and setting: in the case of `O=C(CCc1ccccc1)NC1CCCN(S(=O)(=O)c2ccc(F)cc2)C1` (centres unmarked) [#3] it was 57%; in that of `O=C(CCc1ccccc1)NC1CCCN(S(=O)(=O)c2ccc(OCc3ccccc3)cc2)C1` (centres unmarked) [#4], 64.9%. Same read-out and setting: in the case of `CC(C)(C)OC(=O)N1CCC(C2CCN(c3ccc(S(=O)(=O)N4CCCC(NC(=O)CCc5ccccc5)C4)cc3)CC2)CC1` (centres unmarked) [#41] it was 61.4%; in that of `CCCCNc1ccc(S(=O)(=O)N2CCC(C(=O)O)CC2)cc1` [#27], 55.4%. For the compound `CC1CCCN(c2ccc(S(=O)(=O)N3CCCC(NC(=O)CCc4ccccc4)C3)cc2)C1` (centres unmarked) [#44], the remaining activity at 5 µM was determined as 61.4%. The same measure, in the same setting: in the case of `O=C(CCc1ccccc1)N1CCN(S(=O)(=O)c2ccc(N3CCCCC3)cc2)CC1` [#34] it was 72.4%; in that of `CN(C)c1ccc(S(=O)(=O)N2CCCC(NC(=O)CCc3ccccc3)C2)cc1` (centres unmarked) [#14], 54.3%; in that of `COCCOc1ccc(S(=O)(=O)N2CCCC(NC(=O)CCc3ccccc3)C2)cc1` (centres unmarked) [#17], 91.6%. On the same count and under the same terms, in the case of `O=C(NCCc1ccccc1)C1CCN(S(=O)(=O)c2ccc(N3CCOCC3)cc2)CC1` [#23] it was 77.1%. Still for that read-out and setting: in the case of `CCCCNc1ccc(S(=O)(=O)N2CCCC(NC(=O)CCc3ccccc3)C2)cc1` (centres unmarked) [#15] it was 85%; in that of `O=C(CCc1ccccc1)NC1CCCN(S(=O)(=O)c2ccc(N3CCOCC3)cc2)C1` (centres unmarked) [#12], 41.8%.

Regarding `O=C(CCc1ccccc1)NC1CCCN(S(=O)(=O)c2ccc(N3CCC(C(F)(F)F)CC3)cc2)C1` (centres unmarked) [#42], the remaining activity at 5 µM was 59.2%. On the same count and under the same terms, the value for `O=C(CCc1ccccc1)N1CCN(S(=O)(=O)c2ccc(N3CCOCC3)cc2)CC1` [#32] was 79.9%. On to `CC1CCCCN1c1ccc(S(=O)(=O)N2CCCC(NC(=O)CCc3ccccc3)C2)cc1` (centres unmarked) [#47], for which the remaining activity at 5 µM turned out to be 69.7%. Same read-out and setting: the value for `O=C(NCCc1ccccc1)C1CCN(S(=O)(=O)c2ccc(N3CCCCC3)cc2)CC1` [#20] was 61.5%; that for `CCOc1ccc(S(=O)(=O)N2CCCC(NC(=O)CCc3ccccc3)C2)cc1` (centres unmarked) [#37] was 58.1%.

As to `CC(C)OC1CCN(c2ccc(S(=O)(=O)N3CCCC(NC(=O)CCc4ccccc4)C3)cc2)CC1` (centres unmarked) [#39], the remaining activity at 5 µM amounted to 66.3%.

With `O=C(CCc1ccccc1)N1CCN(S(=O)(=O)c2ccc(N3CCCC3)cc2)CC1` [#35], the remaining activity at 5 µM worked out at 70.6%. Take `O=C(CCc1ccccc1)NC1CCCN(c2ccc(S(=O)(=O)Nc3ccccc3)cc2)C1` (centres unmarked) [#50]: the remaining activity at 5 µM was 59.7%. Turning to `O=C(CCc1ccccc1)NC1CCCN(S(=O)(=O)c2ccc(F)c(Cl)c2)C1` (centres unmarked) [#43], the remaining activity at 5 µM was 71.1%.

For `O=C(CCc1ccccc1)N1CCNCC1` [#29, hydrochloride], the remaining activity at 5 µM was found to be 89.4%.

Consider `O=C(CCc1ccccc1)NC1CCCN(c2ccc(S(=O)(=O)NCc3ccco3)cc2)C1` (centres unmarked) [#52], for which the remaining activity at 5 µM amounted to 45.8%. `COc1ccc(S(=O)(=O)N2CCCC(NC(=O)CCc3ccccc3)C2)cc1` (centres unmarked) [#2]: the remaining activity at 5 µM worked out at 54.6%. Still for that read-out and setting: the value for `CC(C)(C)OC(=O)N1CCN(c2ccc(S(=O)(=O)N3CCCC(C(=O)NCCc4ccccc4)C3)cc2)CC1` (centres unmarked) [#36] was 61.8%.

Take `Cc1nc(N=Nc2ccc(S(=O)(=O)[O-])cc2S(=O)(=O)[O-])c(COP(=O)([O-])[O-])c(C=O)c1O.[Na+].[Na+].[Na+].[Na+]` [PPADS, Pyridoxalphosphate-6-azophenyl-2′,4′-disulfonic acid tetrasodium, reference compound]: the “Percentage of activity remains in the presence of the compound at 5 μM, P2X2R (Yo-Pro-1 Assay)” value was 29.6%. On to `NC(=O)c1cc(Br)cc(N2CCOCC2)c1` [#28], for which the remaining activity at 5 µM amounted to 77.3%.

Regarding `O=C(CCc1ccccc1)NC1CCCN(c2ccc(S(=O)(=O)N3CCCCC3)cc2)C1` (centres unmarked) [#54], the remaining activity at 5 µM was determined as 81.7%. Turning to `O=C(CCc1ccccc1)NC1CCCN(S(=O)(=O)c2ccc(N3CCCCC3)cc2)C1` (centres unmarked) [#5], the remaining activity at 5 µM stood at 55.5%. The same measure, in the same setting: in the case of `CS(=O)(=O)c1ccc(N2CCCC(NC(=O)CCc3ccccc3)C2)cc1` (centres unmarked) [#1] it was 44%; in that of `O=C(NCCc1ccccc1)C1CCCN(S(=O)(=O)c2ccc(N3CCCC3)cc2)C1` (centres unmarked) [#25], 79.3%. Same read-out and setting: the value for `O=C(CCc1ccccc1)NC1CCCN(S(=O)(=O)c2ccc(N3CCCCC3)c(Cl)c2)C1` (centres unmarked) [#45] was 83.3%; that for `O=C1CCC(N2Cc3c(NC(=O)CCc4ccccc4)cccc3C2=O)C(=O)N1` (centres unmarked) [#16] was 83.8%; that for `O=C(CCc1ccccc1)NC1CCCN(S(=O)(=O)Cc2ccc(Br)cc2)C1` (centres unmarked) [#8] was 63.8%.
